Patent publication US20240376084A1, “INHIBITORS OF ALPHA-HEMOLYSIN OF STAPHYLOCOCCUS AUREUS” (Helmholtz-Zentrum Fur Infektionsforschung GmbH, priority 2021, published 2024)

target: hemolysin alpha from Staphylococcus aureus (Staphylococcus aureus, UniProt P09616); test: cell-based
Sequence (P09616 27-319 limits assumed): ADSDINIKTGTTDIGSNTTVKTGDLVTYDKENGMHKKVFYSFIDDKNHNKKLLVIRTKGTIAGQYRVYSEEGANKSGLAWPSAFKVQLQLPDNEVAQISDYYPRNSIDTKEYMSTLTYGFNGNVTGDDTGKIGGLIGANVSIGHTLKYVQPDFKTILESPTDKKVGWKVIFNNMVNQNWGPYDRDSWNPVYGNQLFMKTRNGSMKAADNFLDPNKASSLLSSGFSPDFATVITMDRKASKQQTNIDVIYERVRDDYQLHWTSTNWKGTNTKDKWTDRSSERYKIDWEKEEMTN

Row | Structure (SMILES) | IC50 [nM]
1 | Cc1cc(NS(=O)(=O)c2cc3[nH]c(=O)c(=O)[nH]c3cc2Cl)cc(C)c1-c1ccsc1 [Compound 80, 7-chloro-N-(3,5-dimethyl-4-(thiophen-3-yl)phenyl)-2,3-dioxo-1,2,3,4-tetrahydroquinoxaline-6-sulfonamide] | 100 to 1000
2 | O=c1[nH]c2cc(F)c(S(=O)(=O)Nc3ccc4ccccc4c3)cc2[nH]c1=O [Compound 95, 7-fluoro-N-(naphthalen-2-yl)-2,3-dioxo-1,2,3,4-tetrahydroquinoxaline-6-sulfonamide] | 100 to 1000
3 | O=c1[nH]c2cc(Br)c(S(=O)(=O)Nc3ccc(C4CC4)cc3)cc2[nH]c1=O [Compound 96, 7-bromo-N-(4-cyclopropylphenyl)-2,3-dioxo-1,2,3,4-tetrahydroquinoxaline-6-sulfonamide] | 100 to 1000
4 | CCOc1ccc(NS(=O)(=O)c2cc3[nH]c(=O)c(=O)[nH]c3cc2C)cc1 [Compound 111, N-(4-ethoxyphenyl)-7-methyl-2,3-dioxo-1,2,3,4-tetrahydroquinoxaline-6-sulfonamide] | 100 to 1000
5 | Cc1ccc(-c2ccc(NS(=O)(=O)c3cc4[nH]c(=O)c(=O)[nH]c4cc3C)cc2)cc1 [Compound 115, 7-methyl-N-(4′-methyl-[1,1′-biphenyl]-4-yl)-2,3-dioxo-1,2,3,4-tetrahydroquinoxaline-6-sulfonamide] | 100 to 1000
6 | Cc1cc2[nH]c(=O)c(=O)[nH]c2cc1S(=O)(=O)Nc1ccc(-c2c(C)cccc2C)cc1 [Compound 116, N-(2′,6′-dimethyl-[1,1′-biphenyl]-4-yl)-7-methyl-2,3-dioxo-1,2,3,4-tetrahydroquinoxaline-6-sulfonamide] | 100 to 1000
7 | Cc1ccc(-c2ccc(NS(=O)(=O)c3cc4[nH]c(=O)c(=O)[nH]c4cc3C)cc2)c(C)c1 [Compound 118, N-(2′,4′-dimethyl-[1,1′-biphenyl]-4-yl)-7-methyl-2,3-dioxo-1,2,3,4-tetrahydroquinoxaline-6-sulfonamide] | 100 to 1000
8 | Cc1cc2[nH]c(=O)c(=O)[nH]c2cc1S(=O)(=O)Nc1ccc(C#N)cc1 [Compound 129, N-(4-cyanophenyl)-7-methyl-2,3-dioxo-1,2,3,4-tetrahydroquinoxaline-6-sulfonamide] | 1000 to 3500
9 | Cc1cc2[nH]c(=O)c(=O)[nH]c2cc1S(=O)(=O)Nc1cc(C)c(-c2ccncc2)c(C)c1 [Compound 131, N-(3,5-dimethyl-4-(pyridin-4-yl)phenyl)-7-methyl-2,3-dioxo-1,2,3,4-tetrahydroquinoxaline-6-sulfonamide] | 100 to 1000
10 | Cc1cc2[nH]c(=O)c(=O)[nH]c2cc1S(=O)(=O)Nc1ccc(N(C)C)cc1 [Compound 133, N-(4-(dimethylamino)phenyl)-7-methyl-2,3-dioxo-1,2,3,4-tetrahydroquinoxaline-6-sulfonamide] | 100 to 1000
11 | Cc1cc(NS(=O)(=O)c2cc3[nH]c(=O)c(=O)[nH]c3cc2Cl)cc(C)c1Br [Compound 145, N-(4-bromo-3,5-dimethylphenyl)-7-chloro-2,3-dioxo-1,2,3,4-tetrahydroquinoxaline-6-sulfonamide] | 100 to 1000
12 | O=c1[nH]c2cc(F)c(S(=O)(=O)Nc3ccc(Br)c(Cl)c3)cc2[nH]c1=O [Compound 148, N-(4-bromo-3-chlorophenyl)-7-fluoro-2,3-dioxo-1,2,3,4-tetrahydroquinoxaline-6-sulfonamide] | 100 to 1000
13 | CCCc1ccc(NS(=O)(=O)c2cc3[nH]c(=O)c(=O)[nH]c3cc2C(C)C)cc1 [Compound 151, 7-isopropyl-2,3-dioxo-N-(4-propylphenyl)-1,2,3,4-tetrahydroquinoxaline-6-sulfonamide] | 100 to 1000
14 | CC(C)c1cc2[nH]c(=O)c(=O)[nH]c2cc1S(=O)(=O)Nc1ccc(C2CC2)cc1 [Compound 153, N-(4-cyclopropylphenyl)-7-isopropyl-2,3-dioxo-1,2,3,4-tetrahydroquinoxaline-6-sulfonamide] | 100 to 1000
15 | CC(C)c1cc2[nH]c(=O)c(=O)[nH]c2cc1S(=O)(=O)Nc1ccc(Br)c(Cl)c1 [Compound 154, N-(4-bromo-3-chlorophenyl)-7-isopropyl-2,3-dioxo-1,2,3,4-tetrahydroquinoxaline-6-sulfonamide] | 100 to 1000
16 | Cc1cc(NS(=O)(=O)c2cc3[nH]c(=O)c(=O)[nH]c3cc2Cl)ccc1-c1ccncc1 [Compound 155, 7-chloro-N-(3-methyl-4-(pyridin-4-yl)phenyl)-2,3-dioxo-1,2,3,4-tetrahydroquinoxaline-6-sulfonamide] | 100 to 1000
17 | Cc1cc(NS(=O)(=O)c2cc3[nH]c(=O)c(=O)[nH]c3cc2Cl)cc(C)c1-c1ccoc1 [Compound 156, 7-chloro-N-(4-(furan-3-yl)-3,5-dimethylphenyl)-2,3-dioxo-1,2,3,4-tetrahydroquinoxaline-6-sulfonamide] | 100 to 1000
18 | Cc1cc(NS(=O)(=O)c2cc3[nH]c(=O)c(=O)[nH]c3cc2Cl)cc(C)c1-c1ccncc1 [Compound 157, 7-chloro-N-(3,5-dimethyl-4-(pyridin-4-yl)phenyl)-2,3-dioxo-1,2,3,4-tetrahydroquinoxaline-6-sulfonamide] | 1000 to 3500

Row | Structure (SMILES) | IC50 [nM]
19 | Cc1ccc(-c2ccc(NS(=O)(=O)c3cc4[nH]c(=O)c(=O)[nH]c4cc3F)cc2Cl)o1 [Compound 158, N-(3-chloro-4-(5-methylfuran-2-yl)phenyl)-7-fluoro-2,3-dioxo-1,2,3,4-tetrahydroquinoxaline-6-sulfonamide] | 100 to 1000
20 | CC(C)c1cc2[nH]c(=O)c(=O)[nH]c2cc1S(=O)(=O)Nc1ccc(-c2ccncc2)c(Cl)c1 [Compound 159, N-(3-chloro-4-(pyridin-4-yl)phenyl)-7-isopropyl-2,3-dioxo-1,2,3,4-tetrahydroquinoxaline-6-sulfonamide] | 1000 to 3500
21 | O=c1[nH]c2cc(F)c(S(=O)(=O)Nc3ccc(C(F)(F)F)cc3)cc2[nH]c1=O [Compound 160, 7-fluoro-2,3-dioxo-N-(4-(trifluoromethyl)phenyl)-1,2,3,4-tetrahydroquinoxaline-6-sulfonamide] | 1000 to 3500
22 | CC(C)c1cc2[nH]c(=O)c(=O)[nH]c2cc1S(=O)(=O)Nc1ccc(-c2ccoc2)c(Cl)c1 [Compound 161, N-(3-chloro-4-(furan-3-yl)phenyl)-7-isopropyl-2,3-dioxo-1,2,3,4-tetrahydroquinoxaline-6-sulfonamide] | 100 to 1000
23 | Cc1cc(NS(=O)(=O)c2cc3[nH]c(=O)c(=O)[nH]c3cc2F)cc(C)c1Br [Compound 162, N-(4-bromo-3,5-dimethylphenyl)-7-fluoro-2,3-dioxo-1,2,3,4-tetrahydroquinoxaline-6-sulfonamide] | 100 to 1000
24 | Cc1cc(NS(=O)(=O)c2cc3[nH]c(=O)c(=O)[nH]c3cc2F)ccc1Br [Compound 163, N-(4-bromo-3-methylphenyl)-7-fluoro-2,3-dioxo-1,2,3,4-tetrahydroquinoxaline-6-sulfonamide] | 100 to 1000
25 | O=c1[nH]c2cc(F)c(S(=O)(=O)Nc3ccc4c(c3)CCCC4)cc2[nH]c1=O [Compound 164, 7-fluoro-2,3-dioxo-N-(5,6,7,8-tetrahydronaphthalen-2-yl)-1,2,3,4-tetrahydroquinoxaline-6-sulfonamide] | 100 to 1000
26 | O=c1[nH]c2cc(F)c(S(=O)(=O)Nc3ccc(C(F)(F)F)c(Cl)c3)cc2[nH]c1=O [Compound 165, N-(3-chloro-4-(trifluoromethyl)phenyl)-7-fluoro-2,3-dioxo-1,2,3,4-tetrahydroquinoxaline-6-sulfonamide] | 1000 to 3500
27 | Cc1cc(NS(=O)(=O)c2cc3[nH]c(=O)c(=O)[nH]c3cc2F)cc(C)c1-c1ccoc1 [Compound 166, 7-fluoro-N-(4-(furan-3-yl)-3,5-dimethylphenyl)-2,3-dioxo-1,2,3,4-tetrahydroquinoxaline-6-sulfonamide] | 100 to 1000
28 | Cc1cc(NS(=O)(=O)c2cc3[nH]c(=O)c(=O)[nH]c3cc2F)cc(C)c1-c1ccncc1 [Compound 167, N-(3,5-dimethyl-4-(pyridin-4-yl)phenyl)-7-fluoro-2,3-dioxo-1,2,3,4-tetrahydroquinoxaline-6-sulfonamide] | 1000 to 3500
29 | Cc1cc(NS(=O)(=O)c2cc3[nH]c(=O)c(=O)[nH]c3cc2F)ccc1-c1ccncc1 [Compound 169, 7-fluoro-N-(3-methyl-4-(pyridin-4-yl)phenyl)-2,3-dioxo-1,2,3,4-tetrahydroquinoxaline-6-sulfonamide] | 100 to 1000
30 | CC(C)c1cc2[nH]c(=O)c(=O)[nH]c2cc1S(=O)(=O)Nc1ccc(-c2ccccc2)c(Cl)c1 [Compound 176, N-(2-chloro-[1,1′-biphenyl]-4-yl)-7-isopropyl-2,3-dioxo-1,2,3,4-tetrahydroquinoxaline-6-sulfonamide] | 100 to 1000
31 | CC(C)c1cc2[nH]c(=O)c(=O)[nH]c2cc1S(=O)(=O)Nc1ccc(-c2cccc(Cl)c2)c(Cl)c1 [Compound 178, N-(2,3′-dichloro-[1,1′-biphenyl]-4-yl)-7-isopropyl-2,3-dioxo-1,2,3,4-tetrahydroquinoxaline-6-sulfonamide] | 100 to 1000
32 | Cc1ccc(NS(=O)(=O)c2cc3[nH]c(=O)c(=O)[nH]c3cc2C)cc1 [Compound 179, 7-methyl-2,3-dioxo-N-(p-tolyl)-1,2,3,4-tetrahydroquinoxaline-6-sulfonamide] | 100 to 1000
33 | Cc1cc2[nH]c(=O)c(=O)[nH]c2cc1S(=O)(=O)Nc1ccc(N2CCOCC2)cc1 [Compound 180, 7-methyl-N-(4-morpholinophenyl)-2,3-dioxo-1,2,3,4-tetrahydroquinoxaline-6-sulfonamide] | 1000 to 3500
34 | Cc1ccc(NS(=O)(=O)c2cc3[nH]c(=O)c(=O)[nH]c3cc2C)cc1Cl [Compound 181, N-(3-chloro-4-methylphenyl)-7-methyl-2,3-dioxo-1,2,3,4-tetrahydroquinoxaline-6-sulfonamide] | 1000 to 3500
35 | Cc1cc2[nH]c(=O)c(=O)[nH]c2cc1S(=O)(=O)Nc1ccc(F)c(Cl)c1 [Compound 183, N-(3-chloro-4-fluorophenyl)-7-methyl-2,3-dioxo-1,2,3,4-tetrahydroquinoxaline-6-sulfonamide] | 1000 to 3500
36 | Cc1cc2[nH]c(=O)c(=O)[nH]c2cc1S(=O)(=O)Nc1cc(C)c(-c2cnn(C)c2)c(C)c1 [Compound 184, N-(3,5-dimethyl-4-(1-methyl-1H-pyrazol-4-yl)phenyl)-7-methyl-2,3-dioxo-1,2,3,4-tetrahydroquinoxaline-6-sulfonamide] | 1000 to 3500
